The test system of experiment [1] is beta-amyloid (Aβ40, Aβ42) formation. In words: Beta-amyloid (Aβ40, Aβ42) formation, ELISA, in APP-transfected HeLa cells. As to conditions: for inhibition at 5 µg/mL / inhibition at 1 µM: Homo sapiens, HeLa, read-out: inhibitory effect on the beta-amyloid; for inhibition at 5 µg/mL: 5 μg/ml; for inhibition of beta-amyloid (Aβ40, Aβ42) formation: HeLa-APP cells, various concentrations (FIGS. 1, 2, 6). Type of experiment: cell-based, human. The protocol:
To test the inhibitory effect of Justicidin A (C1) obtained in Example 2 on the beta-amyloid formation, HeLa cell line transfected with the amyloid precursor protein (APP) driven from human was cultured in DMEM solution (Cat. #11995, Gibco, USA) for use. The cell line was received from Prof. Tae-Wan Kim at Department of Pathology, Columbia University Medical Center, New York, N.Y. 10032, USA.
Specifically, the Justicidin A of Example 2 was added into the cell line culture at the amount indicated in FIG. 1, and then the produced amount of be-amyloid (Aβ40, Aβ42 was measured. Human β-Amyloid[1-40](Aβ40), Human β-Amyloid [1-42](Aβ42) Colorimetric ELISA kit (#KHB3482 and #KHB3442; BioSource International, Inc., U.S.A.) were used to quantify two types of beta-amyloid (Aβ40, Aβ42).
The 5-methoxyJusticidin A (C2) of Example 2 was added into the cell line culture at the amount indicated in FIG. 2, and then the produced amount of be-amyloid was measured according to the method of Example 1.1. The group which was not treated with 5-methoxyjusticidin A was used as a negative control.
The compounds were used at the amount of FIG. 6, and measured for the beta-amyloid (Aβ40, Aβ42) formation according to the same method of Experimental Example <1-1>. The group treated with Justicidin A(C1) was a positive control and the group with no treatment was a negative control.
In general terms: In an ELISA, binding on a coated surface is turned into a signal by an enzyme label.

Experiment [2] concerns alpha-secretase product (sAPPα). In words: Alpha-secretase product (sAPPα) production, Western blotting. Type of experiment: cell-based, human. As to conditions: 8 hours, concentrations of FIG. 5. The protocol: The test result confirmed that Justicidin A (C1) obtained in Example 2 and 5-methoxyJusticidin A increased alpha-secretase product (sAPPα). Specifically, the produced amount of sAPPα was measured by treating the cultured cell line (the HeLa cell line transfected with the amyloid precursor protein (APP) driven from human) with Justicidin A (S62-C1) or 5-methoxyJusticitdin A (S62-C2) at a concentration of FIG. 5, culturing it for 8 hours, and measuring the produced amount of sAPPα according to the Western blotting. The negative control was the group with no treatment of Justicidin A or 5-methoxyJusticidin A.
On the technique in general: A western blot detects proteins with antibodies after separation by electrophoresis.

Seven compounds from US9211278B2, “Composition containing arylnaphthalene lignan derivative for preventing and/or treating dementia” (KOREA INSTITUTE OF SCIENCE AND TECHNOLOGY, priority 2012, dated 2015) can be followed below.

In the case of `COc1ccc(-c2c3c(c(O)c4cc5c(cc24)OCO5)COC3=O)cc1OC` [Chinensinaphthol], the inhibition at 5 µg/mL in experiment [1] is about 50%.
On to `COc1c2c(c(-c3ccc4c(c3)OCO4)c3cc4c(cc13)OCO4)C(=O)OC2` [Justicidin F, reference compound], for which the inhibition at 1 µM in experiment [1] was about 20%.
In the case of `COc1c2c(c(-c3ccc4c(c3)OCO4)c3cc4c(cc13)OCO4)COC2=O` [Justicidin D, reference compound], in experiment [1], the inhibition at 1 µM was about 20%.
Turning to `COc1ccc(CC2COC(=O)/C2=C/c2ccc3c(c2)OCO3)cc1OC` (stereo not drawn) [succilactone], in experiment [1], the “inhibition of beta-amyloid (Aβ40, Aβ42) formation” value (“inhibition of beta-amyloid” for short) was “did not show nearly the inhibition” and the inhibition at 5 µg/mL is about 10%.
`COc1ccc(-c2c3c(c(OC)c4cc5c(cc24)OCO5)C(=O)OC3)cc1OC` [retrochinensinaphthol methyether, Retrochinensinaphthol methylether]: the “inhibition of beta-amyloid” value in experiment [1] was “did not show nearly the inhibition”.
For the compound `COc1cc2c(-c3ccc4c(c3)OCO4)c3c(c(OC)c2c(OC)c1OC)COC3=O` [5-methoxyJusticidin A], the “formation of alpha-secretase product (sAPPα)” value in experiment [2] is “activated the formation of alpha-secretase product (sAPPα)”. In addition, in experiment [1], the “inhibition of beta-amyloid” value is on record as “inhibited the beta-amyloid (Aβ40, Aβ42) formation at a concentration-dependent manner”.
Consider `COc1c2c(cc3c(-c4ccc5c(c4)OCO5)c4c(cc13)C(=O)OC4)OCO2` [Justicidin G, reference compound], for which the inhibition at 1 µM in experiment [1] is about 20%.
